Experimental findings from ChEMBL document CHEMBL1201862, “PubChem BioAssay data set” (2004) are described below.

Test systems include BT-549; CAKI-1; DU-145; HOP-62; HT-29; M14; MCF7; Malme-3M; NCI-H460; NCI/ADR-RES; OVCAR-3; OVCAR-5; PC-3; RXF 393; SF-268; SK-MEL-5; SW-620; T47D; UACC-257; UACC-62.
Common to all, as to assay: NCI anticancer screen, dose series, 48 h

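Protocol summary: plate cells (96-well), add compound at 5 concentrations, incubate 48 h, interpolate endpoints linearly. The concentration for 50% growth inhibition is given as GI50.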 Active and inactive are the calls of the source. No stated cut-off is given here; in the data, active = GI50 up to about 1.1 µM and inactive = higher.

As to `COc1cc2c(NCCCCCCO[N+](=O)[O-])ncnc2c(OC)c1OC`, the GI50 in the assay with BT-549 was 23.1 µM (inactive); with CAKI-1 it was 19.1 µM (inactive); in the assay on DU-145, 24.5 µM (inactive); with HOP-62 it was 26.6 µM (inactive); in the assay on HT-29, 36.1 µM (inactive); in the assay on M14 it was 16.9 µM (inactive). In addition, the GI50 with MCF7 is 17.6 µM (inactive); in the assay on Malme-3M, 13.1 µM (inactive); in the assay with NCI-H460, 22.3 µM (inactive); in the assay on NCI/ADR-RES it was 21.7 µM (inactive); in the assay with OVCAR-3 it was 23.1 µM (inactive); in the assay on OVCAR-5 it was 30.2 µM (inactive). Also, the GI50 in the assay on PC-3 was 20.7 µM (inactive); in the assay with RXF 393 it was 17.9 µM (inactive); in the assay on SF-268, 25.5 µM (inactive); in the assay on SK-MEL-5, 11.9 µM (inactive); with SW-620, 26.2 µM (inactive); in the assay with T47D it was 23.8 µM (inactive). Further, the GI50 in the assay with UACC-257 is 17.8 µM (inactive); with UACC-62 it was 18.2 µM (inactive).

As for `O=C(OCc1ccccc1)N1CCCc2c(n(S(=O)(=O)c3ccccc3)c3ccccc23)C1`, the GI50 in the assay on BT-549, in the assay on CAKI-1, in the assay on DU-145, in the assay on HOP-62, in the assay with HT-29 and in the assay with M14 was > 100 µM (inactive) each time. The GI50 in the assay on MCF7 was > 100 µM (inactive); in the assay on Malme-3M, 57.9 µM (inactive); with NCI-H460, > 100 µM (inactive); with NCI/ADR-RES it was > 100 µM (inactive); in the assay on OVCAR-3, > 100 µM (inactive); in the assay with OVCAR-5, > 100 µM (inactive). Moreover, the GI50 is > 100 µM (inactive) in the assay with PC-3; 53.8 µM (inactive) in the assay with RXF 393; > 100 µM (inactive) with SF-268; > 100 µM (inactive) in the assay on SK-MEL-5; > 100 µM (inactive) in the assay with SW-620; 14.2 µM (inactive) with T47D. The GI50 in the assay on UACC-257 and with UACC-62 was > 100 µM (inactive) each time.

Take `CCCCCCCC1C(C)c2c([nH]c3ccccc23)C2C(=O)N(c3ccc(OC)cc3)C(=O)C21` (stereo not given): the GI50 with BT-549 is 2.11 µM (inactive); in the assay on CAKI-1, 3.26 µM (inactive); with DU-145 it was > 8.3 µM (inactive); with HOP-62, 2.7 µM (inactive); in the assay on HT-29, 2.63 µM (inactive); with M14, 2.74 µM (inactive). The GI50 in the assay with MCF7 is 4.6 µM (inactive); with Malme-3M it was > 4.86 µM (inactive); with NCI-H460, 1.87 µM (inactive); in the assay with NCI/ADR-RES it was 1.7 µM (inactive); in the assay on OVCAR-3, 2.48 µM (inactive); with OVCAR-5 it was > 10 µM (inactive). For the same molecule, the GI50 in the assay on PC-3 was 4.68 µM (inactive); in the assay with RXF 393, 2.79 µM (inactive); in the assay with SF-268, 3.72 µM (inactive); in the assay with SK-MEL-5, > 6.22 µM (inactive); with SW-620, 3.02 µM (inactive); in the assay with T47D, 3.79 µM (inactive). Further, the GI50 in the assay on UACC-257 was 2.64 µM (inactive); with UACC-62 it was 4.24 µM (inactive).

With `CC1CC[C@@]2(OC1)OC1C[C@H]3[C@@H]4CC[C@H]5CC(OC6OC(CO)C(OC7OC(CO)C(O)C(O)C7O)C(O)C6O)CCC5(C)[C@H]4CCC3(C)C1[C@@H]2C` (stereo not given in full), the GI50 in the assay with BT-549 was 4.86 µM (inactive); in the assay on CAKI-1 it was 8.49 µM (inactive); in the assay with DU-145, 8.3 µM (inactive); in the assay on HOP-62, 6.03 µM (inactive); with HT-29, 7.35 µM (inactive); in the assay on M14, 8.89 µM (inactive). The GI50 with MCF7 was 5.85 µM (inactive); with Malme-3M, 8.13 µM (inactive); in the assay on NCI-H460 it was 9.04 µM (inactive); in the assay on NCI/ADR-RES, 9.64 µM (inactive); in the assay with OVCAR-3 it was 6.1 µM (inactive); in the assay on OVCAR-5, 8.65 µM (inactive). Besides, the GI50 was 7.45 µM (inactive) with PC-3; 10.7 µM (inactive) with RXF 393; 9.57 µM (inactive) in the assay on SF-268; 8.69 µM (inactive) in the assay on SK-MEL-5; 8.81 µM (inactive) in the assay with SW-620; 9.31 µM (inactive) in the assay with T47D. For the same molecule, the figures for the GI50 in the assay on UACC-257 and in the assay with UACC-62 were 9.64 µM (inactive) and 10.1 µM (inactive), respectively.

For `COc1cc(/C=C2/SC(c3ccccc3)N(c3ccc(Cl)cc3)C2=O)cc(OC)c1OC` (stereo not given), the GI50 with BT-549 is > 59 µM (inactive); in the assay on CAKI-1, > 51.2 µM (inactive); with DU-145, > 100 µM (inactive); in the assay with HOP-62 it was > 29.4 µM (inactive); with HT-29, > 100 µM (inactive); in the assay with M14, 0.964 µM (active). Further, the GI50 with MCF7 was 3.96 µM (inactive); in the assay with Malme-3M, 27 µM (inactive); in the assay with NCI-H460 it was 8 µM (inactive); in the assay with NCI/ADR-RES, 25.9 µM (inactive); with OVCAR-3 it was 80.5 µM (inactive); in the assay with OVCAR-5 it was > 100 µM (inactive). Besides, the GI50 in the assay with PC-3 was 28.6 µM (inactive); with RXF 393 it was 49.7 µM (inactive); in the assay on SF-268 it was 19.5 µM (inactive); with SK-MEL-5 it was 0.638 µM (active); in the assay with SW-620, 57.4 µM (inactive); with T47D, 3.94 µM (inactive). The GI50 in the assay on UACC-257 is 47.2 µM (inactive); with UACC-62, 2.02 µM (inactive).

Consider `O=C1c2ccccc2C2CNC1(O)c1ccccc12` (stereo not given), for which the GI50 with BT-549, in the assay with CAKI-1, in the assay on DU-145, in the assay on HOP-62, in the assay on HT-29 and in the assay on M14 was > 100 µM (inactive) each time. Further, the GI50 in the assay on MCF7, in the assay with Malme-3M, in the assay with NCI-H460, in the assay on NCI/ADR-RES, in the assay on OVCAR-3 and with OVCAR-5 was > 100 µM (inactive) throughout. The GI50 in the assay on PC-3, in the assay on RXF 393, in the assay on SF-268, with SK-MEL-5, in the assay on SW-620 and with T47D was > 100 µM (inactive) in each case. The GI50 with UACC-257 and in the assay on UACC-62 was > 100 µM (inactive) throughout.

For the molecule `Nc1ccc2c(=O)cc(-c3cccs3)[nH]c2n1`, the GI50 with BT-549 was 4.88 µM (inactive); in the assay on CAKI-1, 6.67 µM (inactive); in the assay with DU-145 it was 5.9 µM (inactive); in the assay on HOP-62 it was 7.31 µM (inactive); with HT-29, 3.66 µM (inactive); in the assay on M14, 1.6 µM (inactive). Also, the GI50 was 1.12 µM (inactive) with MCF7; 8.18 µM (inactive) in the assay with Malme-3M; 2.77 µM (inactive) in the assay with NCI-H460; 1.06 µM (active) in the assay on NCI/ADR-RES; 3.32 µM (inactive) in the assay with OVCAR-3; 15.3 µM (inactive) in the assay with OVCAR-5. Moreover, the GI50 is 1.74 µM (inactive) in the assay with PC-3; 4.17 µM (inactive) in the assay with RXF 393; 8.93 µM (inactive) with SF-268; 1.03 µM (active) in the assay on SK-MEL-5; 1.01 µM (active) in the assay with SW-620; 3.13 µM (inactive) in the assay with T47D. The GI50 with UACC-257 is 5.9 µM (inactive); in the assay with UACC-62 it was 2.3 µM (inactive).
